# PMC4977651, “Molecular features of biguanides required for targeting of mitochondrial respiratory complex I and activation of AMP-kinase” (BMC Biology, 2016)
# “And” between values parts separate entries of the source, which are not always exact repeats. Equal values may be shown once.
# Legend:
# [1] = test system: mouse liver mitochondria; test: ADP-stimulated rotenone-sensitive OCR in isolated mouse liver mitochondria; type: biochemical; design: rotenone sensitive OCR after ADP stimulation, individual replicates / rotenone sensitive OCR after ADP stimulation, average: unit not given here; details: for rotenone sensitive OCR after ADP stimulation, % of control, average / rotenone sensitive OCR after ADP stimulation, average: average of replicates; for rotenone sensitive OCR after ADP stimulation, % of control, individual replicates / rotenone sensitive OCR after ADP stimulation, individual replicates: replicate 1-5
# Procedure: Complex I and mitochondrial membranes were prepared from Bos taurus (bovine) heart. Intact mitochondria were isolated from rat liver and mouse heart and liver. Membranes were prepared from mouse heart mitochondria by 5 s bursts of sonication at 4 °C and collected by centrifugation (75,000 × g, 1 h).
# Isolated mitochondria were monitored using a Seahorse XF96 extracellular flux analyzer at 32 °C. Mouse heart mitochondria, and mouse and rat liver mitochondria were plated into XF96 plates at 4 and 16–20 μg per well, respectively, in 220 mM mannitol, 70 mM sucrose, 10 mM KH2PO4, 5 mM MgCl2, 1 mM EGTA, 0.2 % fatty acid-free BSA, and 2 mM HEPES (pH 7.4 at 37 °C) with 10 mM glutamate and 10 mM malate and adhered by centrifugation (2000 × g, 20 min, 4 °C). The medium was supplemented with a further 5 mM glutamate and 5 mM malate and the mitochondria incubated for 15 min. Then two baseline readings were taken before the biguanides were added at IC50/5. Biguanides were allowed to accumulate for 15–20 min before respiration was […] by the addition of 4 mM ADP. Rotenone (2 μM) was added at the end of the experiment. Data from wells with failed port injections were excluded from the analyses. The RCR values (state III versus state IV respiration) were 3.4, 4.8, and 4.6 for mouse heart, rat liver, and mouse liver, respectively.
# [2] = test system: MDBK cells; test: Rotenone-sensitive oxygen consumption rate in intact MDBK cells; type: cell-based, Bos taurus; design: key to rotenone sensitive OCR after 40 mins of biguanide exposure / rotenone sensitive OCR after 40 mins of biguanide exposure, average: % of OCR recorded immediately before biguanide addition; details: for rotenone sensitive OCR after 6 hours of biguanide exposure, % control, average / rotenone sensitive OCR after 6 hours of biguanide exposure, average / rotenone sensitive OCR after 40 mins of biguanide exposure, % control, average / rotenone sensitive OCR after 40 mins of biguanide exposure, average / rotenone sensitive OCR after 40 mins of biguanide exposure / rotenone sensitive OCR after 40 mins of biguanide exposure, % control: biguanide at IC50/10; for rotenone sensitive OCR after 6 hours of biguanide exposure, average: OCR normalized to OCR immediately prior to biguanide addition; for rotenone sensitive OCR after 40 mins of biguanide exposure, % control, average / rotenone sensitive OCR after 40 mins of biguanide exposure, average / rotenone sensitive OCR after 40 mins of biguanide exposure / rotenone sensitive OCR after 40 mins of biguanide exposure, % control: MDBK intact cells; for rotenone sensitive OCR after 40 mins of biguanide exposure, % control, average / rotenone sensitive OCR after 40 mins of biguanide exposure, average: average of replicates; for rotenone sensitive OCR after 40 mins of biguanide exposure / rotenone sensitive OCR after 40 mins of biguanide exposure, % control: individual replicates
# Procedure: 143B (CRL-8303 from ATCC), HepG2 (85011430 from The Health Protection Agency), and MDBK (CCL-22 from ATCC) cells were grown on Dulbecco’s modified Eagle’s medium (DMEM) supplemented with 10 % fetal bovine serum (FBS, Thermo Fisher Scientific) at 37 °C in 5 % CO2. All cells were confirmed as negative for mycoplasma.
# Oxygen consumption rates (OCRs) were measured using a Seahorse XF96 extracellular flux analyzer at 37 °C. For intact cell measurements, 1.4 × 10^4 143B, HepG2, or MDBK cells were plated (per well) in DMEM containing 10 % FBS into Seahorse Bioscience Inc. XF96 plates and incubated for ~12 h at 37 °C in 5 % CO2. Then, the medium was exchanged for assay buffer containing DMEM, 4.5 g L^−1 glucose, 1 mM pyruvate, 32 mM NaCl, 2 mM GlutaMAX, 15 mg L^−1 phenol red, and 20 mM HEPES (pH 7.4 at 37 °C) and the cells placed in a CO2-free incubator at 37 °C for 30 min. Basal oxygen consumption rates were established before the addition of biguanides at one-tenth of their IC50 (IC50/10), and followed for ~ 6 h before the addition of rotenone (2 μM).
# (§1) Rotenone-sensitive OCRs were calculated by subtracting the rotenone-insensitive rates (determined at the end of the experiment). OCRs were normalized by dividing by the OCR recorded immediately prior to the addition of biguanide. For rate of uptake calculations, the OCRs at time points after biguanide addition were divided by the OCRs at the same time points in control experiments. Data from wells with failed port injections were excluded from the analyses. The respiratory control ratio (RCR) values (state III versus state IV respiration) were ~11 and ~6 for permeabilized MDBK and 143B cells, respectively.
# [3] = test system: acetyl-coA carboxylase (phospho-Ser79); test: AMPK activation, western blot of phospho-acetyl-coA carboxylase in MDBK cells; type: cell-based, Bos taurus; details: for ACC, average normalised to control: Averages of experiments 1-3, 18 hours; for p-ACC: band intensity
# Procedure: MDBK cells were seeded at 1 × 10^6 cells per 6 cm dish in DMEM containing 10 % FBS. […] After 18 h cells were harvested by a rapid lysis procedure: cells were rinsed with PBS, then lysed using ice-cold buffer containing 50 mM HEPES, 1 mM EDTA, 10 % glycerol, 50 mM NaF, 5 mM sodium pyrophosphate, 1 % Triton-X100, 1 mM dithiothreitol (DTT), and a protease inhibitor cocktail (Roche). The cell lysate was centrifuged at 14,000 × g for 20 min at 4 °C and the protein concentration of the supernatant determined by bicinchoninic acid assay. The lysate was analyzed using Novex 3–12 % bis-Tris gels run in 3-(N-morpholino)propanesulfonic acid (MOPS) buffer (20 μg of protein per lane) followed by transfer to low fluorescence polyvinylidene fluoride membranes by wet transfer. Primary rabbit antibodies for AMPK-β (57C12), AMPK-α (phospho-Thr172) (40H9), and acetyl-coA carboxylase (phospho-Ser79) (Cell Signaling Technology) were incubated overnight with the membrane (1:1000 dilution) in Odyssey blocking buffer at 4 °C. A fluorescent secondary antibody was used (IRDYE800CW from LI-COR Biosciences, 1:20,000 dilution) with a LI-COR Odyssey imaging system.
# [4] = test system: permeabilized MDBK cells; test: ADP-stimulated rotenone-sensitive OCR in permeabilized MDBK cells; type: cell-based, Bos taurus; design: rotenone sensitive OCR after ADP stimulation, average / rotenone sensitive OCR after ADP stimulation: unit not given here; details: for rotenone sensitive OCR after ADP stimulation, % of control, average / rotenone sensitive OCR after ADP stimulation, average / rotenone sensitive OCR after ADP stimulation / rotenone sensitive OCR after ADP stimulation, % of control: MDBK permeabilised cells; for rotenone sensitive OCR after ADP stimulation, % of control, average / rotenone sensitive OCR after ADP stimulation, average: average of replicates; for rotenone sensitive OCR after ADP stimulation / rotenone sensitive OCR after ADP stimulation, % of control: individual replicates
# Procedure: For permeabilized cell experiments, cells were seeded into XF96 plates at 0.9–1.1 × 10^4 per well and incubated for 48 h at 37 °C in 5 % CO2. Then, the growth medium was exchanged for assay buffer containing 3 nM plasma membrane permeabilizer ‘PMP’ (Seahorse Biosciences Inc.), 10 mM glutamate, 10 mM malate, 220 mM mannitol, 70 mM sucrose, 10 mM KH2PO4, 5 mM MgCl2, 1 mM EGTA, 0.2 % fatty acid-free bovine serum albumin (BSA), and 2 mM HEPES (pH 7.4 at 37 °C). […] The biguanides were allowed to accumulate for 30 min, then respiration was […] by the addition of 4 mM ADP. Rotenone was added (2 μM) at the end of the experiment.
# as §1
Compound,"rotenone sensitive OCR after ADP stimulation, % of control, average [1]","rotenone sensitive OCR after ADP stimulation, average [1]","rotenone sensitive OCR after ADP stimulation, % of control, individual replicates [1]","rotenone sensitive OCR after ADP stimulation, individual replicates [1]","rotenone sensitive OCR after 6 hours of biguanide exposure, % control, average ([2]; MDBK cells) [% control]","rotenone sensitive OCR after 6 hours of biguanide exposure, average ([2]; MDBK cells)","rotenone sensitive OCR after 40 mins of biguanide exposure, % control, average [2] [% control]","rotenone sensitive OCR after 40 mins of biguanide exposure, average [2]",rotenone sensitive OCR after 40 mins of biguanide exposure [2],"rotenone sensitive OCR after 40 mins of biguanide exposure, % control [2]","ACC, average normalised to control [3]","p-ACC / AMPK beta ([3]; Experiment 1, 18 hours)","p-ACC / AMPK beta normalised to control ([3]; Experiment 1, 18 hours)","p-ACC ([3]; Experiment 1, 18 hours)","p-ACC / AMPK beta ([3]; Experiment 2, 18 hours)","p-ACC / AMPK beta normalised to control ([3]; Experiment 2, 18 hours)","p-ACC ([3]; Experiment 2, 18 hours)","p-ACC / AMPK beta ([3]; Experiment 3, 18 hours)","p-ACC / AMPK beta normalised to control ([3]; Experiment 3, 18 hours)","p-ACC ([3]; Experiment 3, 18 hours)",further results
"NC(N)=NC(N)=NCCc1ccc(Cl)cc1 [compound 1, 2-[2-(4-chlorophenyl)ethyl]-1-(diaminomethylidene)guanidine]",43.22 % of control,14.99,45.82 % of control and 40.66 % of control and 43.16 % of control,15.90 and 14.11 and 14.98,64.04,64.24,96.88,98.58,98.09 and 97.70 and 99.35 (3×) and 96.88 and 99.34,96.40 % control and 96.02 % control and 97.64 % control (3×) and 95.21 % control and 97.63 % control,9.49,1.85,9.53,848,2.03,12.57,727,1.89,6.35,483,"maximal rate of accumulation (estimated matrix concentration) ([2]; MDBK cells, biguanide at IC50/10 in the extracellular medium (phenformin 34 μM; compound 1 37 μM), estimated from OCR inhibition): 1 µM/min; rotenone sensitive OCR after ADP stimulation, % of control, average [4]: 20.60 % of control; rotenone sensitive OCR after ADP stimulation, average [4]: 58.06; rotenone sensitive OCR after ADP stimulation, % of control, average ([4]; biguanide at IC50/5): 20.60 % of control; rotenone sensitive OCR after ADP stimulation, average ([4]; biguanide at IC50/5): 58.06; rotenone sensitive OCR after ADP stimulation ([4]; biguanide at IC50/5): 88.38 and 76.77 and 21.79 and 44.14 and 38.29 and 53.63 and 83.42; rotenone sensitive OCR after ADP stimulation, % of control ([4]; biguanide at IC50/5): 31.36 % of control and 27.24 % of control and 7.73 % of control and 15.66 % of control and 13.59 % of control and 19.03 % of control and 29.60 % of control"
"N=C(N)NC(N)=Nc1ccccc1 [compound 2, phenyl biguanide]",78.67 % of control,27.30,80.64 % of control and 78.05 % of control and 77.34 % of control,27.98 and 27.08 and 26.83,99.86,100.16,98.99,100.73,97.96 and 102.05 and 98.68 and 102.17 and 103.50 and 100.00,96.27 % control and 100.30 % control and 96.98 % control and 100.41 % control and 101.71 % control and 98.28 % control,1.20,0.25,1.30,118,0.22,1.36,75.8,0.28,0.93,59.9,"rotenone sensitive OCR after ADP stimulation, % of control, average [4]: 101.81 % of control; rotenone sensitive OCR after ADP stimulation, average [4]: 286.92; rotenone sensitive OCR after ADP stimulation, % of control, average ([4]; biguanide at IC50/5): 101.81 % of control; rotenone sensitive OCR after ADP stimulation, average ([4]; biguanide at IC50/5): 286.92; rotenone sensitive OCR after ADP stimulation ([4]; biguanide at IC50/5): 411.58 and 226.55 and 268.24 and 253.43 and 274.79; rotenone sensitive OCR after ADP stimulation, % of control ([4]; biguanide at IC50/5): 146.05 % of control and 80.39 % of control and 95.18 % of control and 89.93 % of control and 97.51 % of control"
"NC(N)=NC(N)=NCc1ccccc1 [compound 3, 2-benzyl-1-(diaminomethylidene)guanidine]",32.07 % of control,11.13,34.06 % of control and 31.32 % of control and 34.05 % of control and 28.86 % of control,11.82 (2×) and 10.87 and 10.01,18.14,18.19,88.51,90.06,86.89 and 91.07 and 89.16 and 91.81 and 91.02 and 90.42,85.39 % control and 89.50 % control and 87.62 % control and 90.23 % control and 89.45 % control and 88.86 % control,12.79,2.45,12.63,1150,2.31,14.32,699,3.41,11.43,770,"inhibition of OCR ([4]; MDBK cells, 30 min, data used for Fig. 4c matrix concentration estimate): exceeded 90%; rotenone sensitive OCR after ADP stimulation, % of control, average [4]: 12.04 % of control; rotenone sensitive OCR after ADP stimulation, average [4]: 33.92; rotenone sensitive OCR after ADP stimulation, % of control, average ([4]; biguanide at IC50/5): 12.04 % of control; rotenone sensitive OCR after ADP stimulation, average ([4]; biguanide at IC50/5): 33.92; rotenone sensitive OCR after ADP stimulation ([4]; biguanide at IC50/5): 60.28 and 86.89 and -11.73 and 15.23 and 8.14 and 44.74; rotenone sensitive OCR after ADP stimulation, % of control ([4]; biguanide at IC50/5): 21.39 % of control and 30.83 % of control and -4.16 % of control and 5.40 % of control and 2.89 % of control and 15.88 % of control; accumulation into mitochondria (matrix concentration relative to extracellular medium) ([4]; permeabilized MDBK cells, after 30 min of biguanide exposure, IC50/5): more than 200 fold"
